The values that follow come from US20260216138A1, “IDENTIFICATION OF OTUD7B INHIBITOR 7BI AND ITS APPLICATION IN REDUCING GROWTH OF NSCLC AND LEUKEMIA CELLS” (The University of North Carolina at Chapel Hill, priority 2023, published 2026).

Molecules are shown by their SMILES. Entries after “also recorded” stand apart in the source; their conditions may differ.

In assay [1] the test system is OTUD7B. In words: OTUD7B protein levels by immunoblot. Format: cell-based. To be noted: 16 hrs. The method, then:
(§1) Cells were harvested and lysed in EBC buffer (50 mM Tris pH 7.5, 120 mM NaCl, 0.5% NP-40) supplemented with protease inhibitor cocktail (EDTA-free, mini-tablet) (Bimake) and phosphatase inhibitor cocktail (Bimake) by rotating in the cold room for 10 min followed by high-speed centrifugation at 4° C. The protein concentrations in supernatants of whole cell lysates were measured by NanoDrop OneC using the Bio-Rad Bradford protein assay reagent. Equal amounts of whole cell lysates were resolved on SDS-PAGE and immunoblotted with indicated antibodies. For immunoprecipitation analysis, 1 mg of total cell lysate was incubated with the indicated beads for 3-4 hr at 4° C. The recovered immuno-complexes were washed thoroughly three times with NETN buffer (20 mM Tris, pH 8.0, 100 mM NaCl, 1 mM EDTA and 0.5% NP-40) before being resuspended in SDS sample buffer and resolved on SDS-PAGE and immunoblotted with indicated antibodies.
(In general: Immunoblotting shows a protein as a band on a membrane.)

For assay [2], the system named is H1299 cells. Kind of assay: Colony formation / growth of H1299 cells. Format: cell-based. To be noted: treated once for 10 days. The method, then:
(§2) 500 cells from OTUD7B depleted A549 cells were seeded into each well of 6-well plates and cultured in the 37° C. incubator with 5% CO2 for 10-15 days until formation of visible colonies. Triplicates were performed. To test the effect of a given inhibitor on colony formation ability, 800 cells from A549, H520 and H1299 cell lines were seeded into each well of 6-well plates, respectively. Each inhibitor was added at indicated concentration the next day. Colonies were counted after 10 days of treatment. The colony staining method was as described. […] Colony numbers were counted manually. […]
(§3) 2,000 cells from indicated NSLC cell lines were seeded into each well of 96-well plates. Cell viability was measured 3 days post-treatment using MTT assays following manufacturer's instruction. […] Inhibitor was added the next day at indicated concentration and cell viability was measured after 3-day treatment. For cell proliferation assays in THP1, K562 and HL60 cell lines, 1×10^6 cells from each indicated cell line were seeded in 12.5 cm2 cell culture flask and cells were counted by hemocytometer under microscope at indicated time to monitor cell proliferation. […] Inhibitor was added the next day at indicated concentrations and cell number was counted after 3 days treatment. […]

For assay [3], the target named is T1, OTUD7B (Homo sapiens, UniProt Q6GQQ9).
T1 construct: OTUD7B (residues 56-446); GST (N, cleaved yes); made in house; host or cells: E. coli BL21-Codon Plus (DE3)-RIL
T1 sequence (Q6GQQ9 56-446): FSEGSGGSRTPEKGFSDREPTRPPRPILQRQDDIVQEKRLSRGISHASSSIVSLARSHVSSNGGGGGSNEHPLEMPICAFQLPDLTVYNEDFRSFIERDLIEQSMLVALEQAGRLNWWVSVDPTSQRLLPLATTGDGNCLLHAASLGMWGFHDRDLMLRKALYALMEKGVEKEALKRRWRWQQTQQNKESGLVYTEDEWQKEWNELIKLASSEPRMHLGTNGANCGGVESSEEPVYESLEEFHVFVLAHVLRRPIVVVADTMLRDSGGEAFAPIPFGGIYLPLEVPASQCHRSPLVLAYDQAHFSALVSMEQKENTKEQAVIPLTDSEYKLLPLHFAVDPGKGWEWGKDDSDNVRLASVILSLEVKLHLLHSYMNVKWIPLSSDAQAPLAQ
In words: Ubiquitin-AMC assay, OTUD7B. Format: biochemical. To be noted: 50 μM 7Bi, 300 nM OTUD7B, 2 uM ubiquitin-AMC. The method, then: 50 μM 7Bi were incubated with 300 nM OTUD7B (residues 56-446), 10 μM OTUD7A (residues 1-462), 200 nM USP21 (residues 196-565), or 500 nM USP9X (residues 1551-1970) in reaction buffer (20 mM HEPES pH=8.0, 200 mM NaCl, 0.25 mg/mL BSA and 0.005% Tween-20) for 5 min at room temperature. Then, 2 uM ubiquitin-AMC was added to start the reaction. The fluorescence emission data was collected at an excitation wavelength of 355 nm and emission wavelength of 460 nm every 3 min. Reactions were completed three times to generate the error bars.

Assay [4] concerns HEK293 cells. Kind of assay: Cell viability by MTT assay in HEK293 cells. Format: cell-based. To be noted: 72 hrs. The method, then:
(§4) 2,000 cells from indicated NSLC cell lines were seeded into each well of 96-well plates. Cell viability was measured 3 days post-treatment using MTT assays following manufacturer's instruction. For cell viability assays with inhibitor treatment, 2,000 cells from indicated NSLC and HEK293 cell lines were seeded in 96-well plate. Inhibitor was added the next day at indicated concentration and cell viability was measured after 3-day treatment. For cell proliferation assays in THP1, K562 and HL60 cell lines, 1×10^6 cells from each indicated cell line were seeded in 12.5 cm2 cell culture flask and cells were counted by hemocytometer under microscope at indicated time to monitor cell proliferation. To test inhibitor effects on THP1, K562 and HL60 cell growth, 2×10^5 cells were seeded in 12.5 cm2 cell culture flask. Inhibitor was added the next day at indicated concentrations and cell number was counted after 3 days treatment. Three independent experiments were performed to generate error bars.

Assay [5] has as its system OTUD7B-induced GβL deubiquitination. Kind of assay: In-cell GβL ubiquitination assay (Ni-NTA pulldown, HEK293 cells). It counts as cell-based. To be noted: HEK293 cells transfected with DNA constructs, compound for 16 hrs; listed as #19. The method, then: FIGS. 2A-2L show results of validation for OTUD7B small molecule inhibitors in cells. (A-D) IB analyses of WCL from indicated NSCLC cells treated with […] of indicated compounds for 16 hrs. (E, F) IB analyses of WCL from either A549 (E) or HEK293 (F) cells treated with indicated doses of compound #19 for 16 hrs. (G) IB analyses of Ni-NTA pulldowns and WCL from HEK293 cells transfected with indicated DNA constructs. Where indicated, cells were treated with […] of indicated compounds for 16 hrs before cell collection. (H-L) Quantifications of cell viability by MTT assays in A549 cells treated with indicated doses of indicated compounds for 72 hrs. Error bars were calculated as mean+/−SD, n=3. *p<0.05 (one-way ANOVA test).

The test system of assay [6] is NSCLC cells. Kind of assay: NSCLC cell growth. Format: cell-based. To be noted: read-out: IC50 values to suppress NSCLC cell growth. The method, then:
as §2, §3

The test system of assay [7] is HL60 cells. Kind of assay: Leukemia cell proliferation, HL60. It counts as cell-based. To be noted: 72 hrs. The method, then: as §4
The test system of assay [8] is Akt-pS473. Kind of assay: Akt-pS473 immunoblot in leukemia cells (HL60, K562, THP1). To be noted: indicated doses, 16 hrs. Format: cell-based. The method, then: as §1
In addition to NSCLC, overexpression of OTUD7B was also observed in diffuse large B-cell lymphoma and served as a prognostic marker. This promoted us to examine roles of OTUD7B in leukemia cells. […] Similar to NSCLC cells, depletion of OTUD7B in K562 cells also led to increased K63-linked GβL ubiquitination (FIG. 4D). Consistent with a reduction in Akt-pS473 signals, OTUD7B depletion reduced the growth of THP1 (FIG. 4E), K562 (FIG. 4F) and HL60 (FIG. 4G) cells in vitro.

Assay [9] deals with K562 cells. Kind of assay: Leukemia cell proliferation, K562. Format: cell-based. To be noted: 72 hrs. The method, then:
as §4

The test system of assay [10] is K63-linked ubiquitination of GβL. In words: Endogenous K63-linked GβL ubiquitination (GβL-IP). Format: cell-based. To be noted: 16 hrs. The method, then:
as §1

As to `Cc1cc(NC(=O)c2cnn(C)c2C(=O)Nc2cc(C)nn2C2CCCC2)n(C2CCCC2)n1` [7Bi], the OTUD7B protein levels result in assay [1] (A549 cells) and in assay [1] (HEK293 cells) was “did not significantly affect OTUD7B protein levels” in each case. The cell growth result in assay [2] is recorded as “reduced growth”. The “inhibition of hydrolysis of ubiquitin-AMC by OTUD7B” value in assay [3] is given as “efficiently inhibited hydrolysis of ubiquitin-AMC”. In addition, the “cell growth (MTT)” value in assay [4] is “reduced growth”. In addition, the “blocking OTUD7B-induced GβL deubiquitination in cells” value in assay [5] was “partially blocked OTUD7B-induced GβL deubiquitination; also recorded: able to block OTUD7B-mediated GβL deubiquitination in cells”. In addition, the IC50 (in general, the concentration needed to halve the response being measured) in assay [6] was ~2500 nM. For the same molecule, the cell proliferation entry in assay [7] and in [9] was “reduced proliferation” in each case. Further, the Akt-pS473 signals entry in [8] (HL60 cells), in assay [8] (K562 cells) and in assay [8] (THP1 cells) was “reduced Akt-pS473 signals” throughout. The “K63-linked ubiquitination of GβL at endogenous levels” value in assay [10] (A549 cells) is recorded as “increased K63-linked ubiquitination of GβL at endogenous levels”. Moreover, the “K63-linked GβL ubiquitination at endogenous levels” value in assay [10] (K562 cells) is “increased K63-linked GβL ubiquitination at endogenous levels”.
